For one molecule, IC50 results are on record in patent publication US20230116399A1, “Tumor Homing Statin Derivatives” (Da Zen Theranostics, Inc., priority 2019, published 2023).

Like-named read-outs stand apart in the source and are kept apart here.

For assay [1], the system named is 22RV1 prostate cancer cells. The experiment in a line: Cell viability by trypan blue counting, 22RV1. The format is cell-based, human. The following applies: read-out: IC50 for reduction of cell viability/growth inhibition. As for the experimental part:
Cell culture: In the following examples, unless otherwise specified, all cell lines are purchased from American Type Culture Collection and cultured in American Type Culture Collection (ATCC)-recommended media, with fetal bovine serum (FBS) to a final concentration of 10% and 1×penicillin/streptomycin at 37° C. with 5% CO2 in a cell culture incubator, unless otherwise specified. Unless otherwise specified, culture is 2D. Where culture is 3D, low attachment plates are used, with the same media. C4-2B (parental cell line and drug-resistant cells derived therefrom) are cultured in RPMI-1640 with 10% FBS. MDVR cells (an Enzalutamide-resistant variety of C4-2B prostate cancer cells formed as described in Example 4 below) are cultured as indicated for the parental C4-2B cells. 22RV1 Prostate Cancer (PC) cells (ATCC® CRL-2505™, a human prostate carcinoma cell line of epithelial morphology) are cultured in RPMI-1640 with 10% FBS. […]
Example 1B: Prostate Cancer (PC) cells (22RV1, ATCC® CRL-2505™, a human prostate carcinoma cell line) are cultured according to the standard protocol, and exposed for 24-48 hours, to 0-50 μM of the respective compound (THSD, unconjugated dye). Cell viability is determined by counting viable cells and dead cells after treatment of the cells with trypan blue dye to distinguish viable from dead cells. […]

In assay [2] the test system is 22RV1 (PC). Kind of assay: MTT cell viability, 22RV1. The following applies: Homo sapiens, 22Rv1, 22RV1, treated for 48 h /, relative IC50. Format: cell-based, human. On the procedure: Cell culture: In the following examples, unless otherwise specified, all cell lines are purchased from American Type Culture Collection and cultured in American Type Culture Collection (ATCC)-recommended media, with fetal bovine serum (FBS) to a final concentration of 10% and 1×penicillin/streptomycin at 37° C. with 5% CO2 in a cell culture incubator, unless otherwise specified. Unless otherwise specified, culture is 2D. Where culture is 3D, low attachment plates are used, with the same media. C4-2B (parental cell line and drug-resistant cells derived therefrom) are cultured in RPMI-1640 with 10% FBS. MDVR cells (an Enzalutamide-resistant variety of C4-2B prostate cancer cells formed as described in Example 4 below) are cultured as indicated for the parental C4-2B cells. 22RV1 Prostate Cancer (PC) cells (ATCC® CRL-2505™, a human prostate carcinoma cell line of epithelial morphology) are cultured in RPMI-1640 with 10% FBS. A549 cells (ATCC® CCL-185™, a human lung carcinoma cell line of epithelial morphology) are cultured in F-12K medium with 10% FBS. A549/DDP cells (Cells were described in DOI: 10.3892/mmr.2014.2163 and in doi: 10.7150/jca.19426; cisplatin resistant cells may be established from exposing parental A549 cells to cisplatin for an extended time). MDR A549/cisplatin lung adenocarcinoma cell line, drug resistant) are cultured in F-12K medium with 10% FBS. H1975 cells (ATCC® CRL-5908™, a human adenocarcinoma non-small cell lung cancer cell line of epithelial morphology) are cultured in RPMI-1640 medium with 10% FBS; H1975 cells are a cell model for human lung cancer that is resistant to Gefitinib (an EGFR inhibitor drug used for treatment of certain breast, lung and other cancers). H1650 cells (ATCC® CRL-5883™, a adenocarcinoma/bronchoalveolar carcinoma lung cancer cell line of epithelial morphology) are cultured in RPMI-1640 medium with 10% FBS. […]
[…] For each cell line, the IC50 is determined for each drug, i.e. the ELSD, the ALSD, and for the corresponding unconjugated statin (Simvastatin), in concentrations from 0.1-100 μM. […]

As for `CCC(C)(C)C(=O)O[C@H]1C[C@@H](C)C=C2C=C[C@H](C)[C@H](CC[C@@H]3C[C@@H](O)CC(=O)O3)[C@H]21` [Simvastatin], the IC50 was greater than 50 µM in assay [1] (22RV1, exposed 24-48 hours, listed as unconjugated statin); greater than 60 µM in assay [1] (Homo sapiens, 22Rv1, 22RV1, exposed 24-48 hours); 38.7 µM in assay [2].
